The values below come from patent publication US9096596B2 (Janssen Pharmaceutica NV, priority 2013, dated 2015).

Read-outs that look alike come from different tables or passages of the source.

Test [1] deals with T1, P2X7 (Homo sapiens (Human), UniProt Q99572). Nature of the test: P2X7 antagonism in human PBMCs (IL-1β release, ELISA). The test is classed as cell-based. As to conditions: test compound 10 μM, IL-1β release in human PBMCs, LPS 30 ng/ml + Bz-ATP 0.5 mM, read-out: PBMC 10 μM (% control). As for the experimental part: Human blood was collected using a blood donor program. […] Cells were incubated for an additional 1.5 hours. […] In Table 2, when the data cell has been left blank, it is intended to mean that the compound was not tested in that assay.
For orientation: In an ELISA, binding on a coated surface is turned into a signal by an enzyme label.

In test [2] the target is T1, P2X7. Nature of the test: Radioligand binding, human P2X7-1321N1 cell membranes, tracer tritiated A-804598. As for the experimental part:
(§1) On the day of the experiment, cell membrane preparations were made according to standard published methods. […] The compound can be prepared as described in the literature. […] The assay was terminated by filtration (GF/B filters pre-soaked with 0.3% PEI) and washed with washing buffer (Tris-HCl 50 mM). The IC50 generated in the binding assay was corrected for tracer concentration and affinity of the tracer to derive at the affinity (Ki) of the test compounds.

Test [3] addresses T1, P2X7. Nature of the test: Ca2+ flux (FLIPR) in 1321N1 cells expressing recombinant human P2X7 channel. The test is classed as cell-based. As to conditions: 250 μM BzATP, Calcium-4 dye. As for the experimental part:
1321N1 cells expressing the recombinant human, rat or mouse P2X7 channel was cultured in HyQ DME/(HyClone/Dulbecco's Modified Eagle Medium) high glucose supplemented with 10% Fetal Bovine Serum (FBS) and appropriate selection marker. Cells were seeded at a density of 25000 cells/well (96-well clear bottom black walled plates) in 100 μl volume/well. On the day of the experiment, cell plates were washed with assay buffer, containing (in mM): 130 NaCl, 2 KCl, 1 CaCl2, 1 MgCl2, 10 HEPES, 5 glucose; pH 7.40 and 300 mOs. After the wash, cells were loaded with the Calcium-4 dye (Molecular Device) and incubated in the dark for 60 minutes. Test compounds were prepared at 250× the test concentration in neat DMSO. Intermediate 96-well compound plates were prepared by transferring 1.2 μL of the compound into 300 μL of assay buffer. A further 3× dilution occurred when transferring 50 μL/well of the compound plate to 100 μL/well in the cell plate. Cells were incubated with test compounds and dye for 30 minutes. […] The fluorescence change was measured 180 seconds after adding the agonist.
A general note: Calcium flux is commonly read through the fluorescence of an indicator in the cells.

The target of test [4] is T2, rat P2X7 (Rattus norvegicus (Rat), UniProt Q64663). Nature of the test: Ca2+ flux (FLIPR) in 1321N1 cells expressing recombinant rat P2X7 channel. The test is classed as cell-based. As to conditions: 250 μM BzATP, Calcium-4 dye. The method, boiled down: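 1321N1 cells stably expressing P2X7 were loaded with Calcium-4 dye for 60 min in HEPES-buffered saline (pH 7.40, 1 mM CaCl2, 1 mM MgCl2), then preincubated with test compounds for 30 min. Fluorescence change was read 180 s after agonist addition.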

The target of test [5] is T2, rat P2X7. The experiment in a line: Radioligand binding, rat P2X7-1321N1 cell membranes, tracer tritiated A-804598. As to conditions: rat P2X7-1321N1 membranes; 1 hour at 4° C.; IC50 corrected for tracer concentration and affinity. As for the experimental part:
as §1

Where [6] appears, read: human P2X7-1321N1 membranes, 1 hour at 4° C., IC50 corrected for tracer concentration and affinity.

T1 sequence (Q99572 whole entry): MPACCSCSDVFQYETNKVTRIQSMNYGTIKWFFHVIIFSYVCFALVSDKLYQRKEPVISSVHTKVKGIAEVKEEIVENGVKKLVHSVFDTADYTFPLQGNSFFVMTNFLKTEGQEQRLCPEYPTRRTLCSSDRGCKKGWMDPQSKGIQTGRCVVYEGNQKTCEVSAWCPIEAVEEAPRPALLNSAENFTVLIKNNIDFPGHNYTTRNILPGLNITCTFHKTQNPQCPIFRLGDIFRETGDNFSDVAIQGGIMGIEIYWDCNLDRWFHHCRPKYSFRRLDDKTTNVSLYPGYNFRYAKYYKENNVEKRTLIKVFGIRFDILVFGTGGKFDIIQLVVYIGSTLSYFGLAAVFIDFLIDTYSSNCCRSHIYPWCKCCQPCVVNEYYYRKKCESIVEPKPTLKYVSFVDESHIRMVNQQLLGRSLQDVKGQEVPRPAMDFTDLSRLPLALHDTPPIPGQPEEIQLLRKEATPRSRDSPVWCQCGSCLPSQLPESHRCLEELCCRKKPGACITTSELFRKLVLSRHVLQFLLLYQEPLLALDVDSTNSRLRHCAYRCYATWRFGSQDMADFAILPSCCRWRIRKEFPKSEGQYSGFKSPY
T2 sequence (Q64663 whole entry): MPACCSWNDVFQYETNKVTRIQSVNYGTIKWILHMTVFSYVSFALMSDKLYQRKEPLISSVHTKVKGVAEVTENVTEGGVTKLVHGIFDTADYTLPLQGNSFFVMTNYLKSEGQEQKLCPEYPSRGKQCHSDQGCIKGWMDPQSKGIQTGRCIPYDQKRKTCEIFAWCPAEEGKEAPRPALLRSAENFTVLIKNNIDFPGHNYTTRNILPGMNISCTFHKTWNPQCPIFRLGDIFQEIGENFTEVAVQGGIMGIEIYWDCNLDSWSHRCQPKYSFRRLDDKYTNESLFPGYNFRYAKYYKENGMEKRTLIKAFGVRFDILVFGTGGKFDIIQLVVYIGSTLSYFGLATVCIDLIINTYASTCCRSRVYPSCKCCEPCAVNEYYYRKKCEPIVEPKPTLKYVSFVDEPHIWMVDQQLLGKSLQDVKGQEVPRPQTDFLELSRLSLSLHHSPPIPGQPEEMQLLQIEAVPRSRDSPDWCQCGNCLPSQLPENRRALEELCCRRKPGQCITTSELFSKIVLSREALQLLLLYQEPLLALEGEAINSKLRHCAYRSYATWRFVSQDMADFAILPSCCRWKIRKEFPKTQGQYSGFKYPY

For `Cc1nc2c(c(-c3ccn[nH]3)n1)CC(C)N(C(=O)c1cccc(C(F)(F)F)c1C)C2` (stereo not shown) [Example 77, (2,6-dimethyl-4-(1H-pyrazol-5-yl)-5,6-dihydropyrido[3,4-d]pyrimidin-7(8H)-yl)(2-methyl-3-(trifluoromethyl)phenyl)methanone], in test [1], the remaining activity at 10 µM is 20.9%. Further, the affinity in test [2] (setting [6]) corresponds to a Ki of 31.6 nM. Moreover, the half-inhibitory concentration (IC50) – broadly, the point on the concentration scale where inhibition reaches its midpoint – in test [3] was 63.1 nM.
Take `O=C(c1cccc(Cl)c1Cl)N1CCc2c(ncnc2-c2ccccn2)C1` [Example 11, 7-[(2,3-Dichlorophenyl)carbonyl]-4-pyridin-2-yl-5,6,7,8-tetrahydropyrido[3,4-d]pyrimidine]: the IC50 is above 10000 nM in test [4] and 416 nM in test [3]. In addition, the Ki – broadly, a measure of affinity in units of concentration, obtained from inhibition or displacement – is 37.2 nM in test [2] (setting [6]) and 61.7 nM in test [5].
On to `CC1Cc2c(nc(N)nc2-c2ccn[nH]2)CN1C(=O)c1cccc(C(F)(F)F)c1Cl` (stereo not shown) [Example 63, (2-amino-6-methyl-4-(1H-pyrazol-5-yl)-5,6-dihydropyrido[3,4-d]pyrimidin-7(8H)-yl)(2-chloro-3-(trifluoromethyl)phenyl)methanone], for which the 50% inhibitory concentration (IC50) in test [4] came out at 2.5 nM; in test [3], 316 nM. The remaining activity at 10 µM in test [1] was -4.1%. In test [2] (setting [6]), this compound gave an inhibition constant Ki of 22.4 nM.
Turning to `O=C(c1cccc(C(F)(F)F)c1Cl)N1CCc2c(ncnc2-n2nccn2)C1` [Example 108, 7-{[2-Chloro-3-(trifluoromethyl)phenyl]carbonyl}-4-(2H-1,2,3-triazol-2-yl)-5,6,7,8-tetrahydropyrido[3,4-d]pyrimidine], in test [4], the IC50 came to 67.9 nM. The same compound came in with a Ki in test [5] of 7.9 nM.
Regarding `O=C(c1cccc(C(F)(F)F)c1Cl)N1CCc2c(ncnc2-c2ccn[nH]2)C1` [Example 18, (4-(1H-pyrazol-5-yl)-5,6-dihydropyrido[3,4-d]pyrimidin-7(8H)-yl)(2-chloro-3-(trifluoromethyl)phenyl)methanone], the figures for the IC50 in test [4] and in test [3] were 76.2 nM and 10.3 nM, respectively. The figures for the Ki in test [2] (setting [6]) and in test [5] were 20 nM and 5 nM, respectively.
On to `Cc1nc2c(c(-c3ccn[nH]3)n1)CC(C)N(C(=O)c1ccc(Cl)cc1F)C2` (stereo not shown) [Example 87, (4-chloro-2-fluorophenyl)(2,6-dimethyl-4-(1H-pyrazol-5-yl)-5,6-dihydropyrido[3,4-d]pyrimidin-7(8H)-yl)methanone], for which, in test [1], the remaining activity at 10 µM worked out at 0.4%. In test [2] (setting [6]), affinity was put at a Ki of 31.6 nM. In addition, in test [3], the IC50 stood at 33.6 nM.
Regarding `Cc1nc2c(c(-c3ccn[nH]3)n1)CC(C)N(C(=O)c1ccccc1Cl)C2` (stereo not shown) [Example 97, (2-chlorophenyl)(2,6-dimethyl-4-(1H-pyrazol-5-yl)-5,6-dihydropyrido[3,4-d]pyrimidin-7(8H)-yl)methanone], the figures for the IC50 in test [4] and in test [3] were 14000 nM and 166 nM, respectively. The remaining activity at 10 µM in test [1] was -3.1%. In addition, the affinity in test [2] (setting [6]) corresponds to a Ki of 200 nM.
The matching figures for `O=C(c1cccc(C(F)(F)F)c1F)N1CCc2c(ncnc2-c2ccn[nH]2)C1` [Example 111, (4-(1H-pyrazol-5-yl)-5,6-dihydropyrido[3,4-d]pyrimidin-7(8H)-yl)(2-fluoro-3-(trifluoromethyl)phenyl)methanone]: 807 nM, 353 nM, 0.6% and 50.1 nM.
In the case of `O=C(c1ccc(F)cc1Cl)N1CCc2c(ncnc2-c2ccn[nH]2)C1` [Example 21], the remaining activity at 10 µM in test [1] is -15.5%. Affinity in test [2] (setting [6]) was put at a Ki of 39.8 nM. The IC50 in test [3] came out at 280 nM.
In the case of `Cc1nc2c(c(-c3ccn[nH]3)n1)CC(C)N(C(=O)c1ccc(F)cc1F)C2` (stereo not shown) [Example 93, (2,4-difluorophenyl)(2,6-dimethyl-4-(1H-pyrazol-5-yl)-5,6-dihydropyrido[3,4-d]pyrimidin-7(8H)-yl)methanone], the figures for the IC50 in test [4] and in test [3] were 385 nM and 28.5 nM, respectively. For the same compound, the remaining activity at 10 µM in test [1] is -1.7%. Further, the Ki in test [2] (setting [6]) turned out to be 200 nM.
In the case of `O=C(c1cccc(C(F)(F)F)c1Cl)N1CCc2c(nc(C3CC3)nc2-c2ccn[nH]2)C1` [Example 57, 7-{[2-Chloro-3-(trifluoromethyl)phenyl]carbonyl}-2-cyclopropyl-4-(1H-pyrazol-5-yl)-5,6,7,8-tetrahydropyrido[3,4-d]pyrimidine], the values for the IC50 in test [4] and in test [3] were 161 nM and 16.5 nM, respectively. Also, the remaining activity at 10 µM in test [1] is -9.6%. In test [2] (setting [6]), this compound showed an inhibition constant (Ki) of 63.1 nM.
The matching figures for `Cc1nc2c(c(-c3ccn[nH]3)n1)CC(C)N(C(=O)c1ccc(Cl)cc1)C2` (stereo not shown) [Example 96, (4-chlorophenyl)(2,6-dimethyl-4-(1H-pyrazol-5-yl)-5,6-dihydropyrido[3,4-d]pyrimidin-7(8H)-yl)methanone]: 1840 nM, 50 nM, 3.8% and 631 nM.
The matching figures for `O=C(c1cccc(C(F)(F)F)c1Cl)N1CCc2c(ncnc2-c2cccc(F)n2)C1` [Example 130, (2-chloro-3-(trifluoromethyl)phenyl)(4-(6-fluoropyridin-2-yl)-5,6-dihydropyrido[3,4-d]pyrimidin-7(8H)-yl)methanone]: 1090 nM, 17.4 nM, 12.9% and 63.1 nM.
The matching figures for `O=C(c1cccc(C(F)(F)F)c1Cl)N1CCc2c(ncnc2-n2cnnc2)C1` [Example 109, (4-(4H-1,2,4-triazol-4-yl)-5,6-dihydropyrido[3,4-d]pyrimidin-7(8H)-yl)(2-chloro-3-(trifluoromethyl)phenyl)methanone]: 485 nM, 12.1 nM, 2.2% and 12.6 nM.
In the case of `O=C(c1cccc(C(F)(F)F)c1Cl)N1CCc2c(nc(C(F)(F)F)nc2-c2ccn[nH]2)C1` [Example 60, (4-(1H-pyrazol-5-yl)-2-(trifluoromethyl)-5,6-dihydropyrido[3,4-d]pyrimidin-7(8H)-yl)(2-chloro-3-(trifluoromethyl)phenyl)methanone], in test [1], the remaining activity at 10 µM turned out to be 10.8%. The compound further returned a Ki in test [2] (setting [6]) of 79.4 nM. In test [3], the concentration for half-maximal inhibition (IC50) came to 65.5 nM.
On to `Cc1nc2c(c(-c3[nH]ncc3F)n1)CCN(C(=O)c1cccc(Cl)c1Cl)C2` [Example 36, 7-[(2,3-Dichlorophenyl)carbonyl]-4-(4-fluoro-1H-pyrazol-5-yl)-2-methyl-5,6,7,8-tetrahydropyrido[3,4-d]pyrimidine], for which the Ki in test [2] (setting [6]) amounted to 79.4 nM; in test [5], 31.6 nM.
As for `Cc1nc2c(c(-c3cscn3)n1)CCN(C(=O)c1cccc(C(F)(F)F)c1Cl)C2` [Example 44, 7-{[2-Chloro-3-(trifluoromethyl)phenyl]carbonyl}-2-methyl-4-(1,3-thiazol-4-yl)-5,6,7,8-tetrahydropyrido[3,4-d]pyrimidine], the IC50 was 156 nM in test [4] and 34.8 nM in test [3]. Also, affinity in test [2] (setting [6]) was put at a Ki of 63.1 nM.
For the compound `Cc1nc2c(c(-c3ccn[nH]3)n1)C[C@H](C)N(C(=O)c1ccc(F)cc1F)C2` (single isomer, unassigned) [Example 95, (S*)-(2,4-difluorophenyl)(2,6-dimethyl-4-(1H-pyrazol-5-yl)-5,6-dihydropyrido[3,4-d]pyrimidin-7(8H)-yl)methanone], the results for the 50% inhibitory concentration (IC50) in test [4] and in test [3] were 101 nM and 64.7 nM, respectively. Besides, the inhibitory constant (Ki) in test [2] worked out at 31.6 nM.
`CN(C)c1nc2c(c(-c3ccn[nH]3)n1)CCN(C(=O)c1cccc(C(F)(F)F)c1Cl)C2` [Example 54, 7-{[2-Chloro-3-(trifluoromethyl)phenyl]carbonyl}-N,N-dimethyl-4-(1H-pyrazol-5-yl)-5,6,7,8-tetrahydropyrido[3,4-d]pyrimidin-2-amine]: the IC50 in test [4] worked out at 556 nM; in test [3], 21 nM. Also, the remaining activity at 10 µM in test [1] turned out to be 5%. Further, in test [2] (setting [6]), the Ki worked out at 100 nM.
`CC1Cc2c(ncnc2-c2ccn[nH]2)CN1C(=O)c1cccc(C(F)(F)F)c1Cl` (stereo not shown) [Example 62, (2-chloro-3-(trifluoromethyl)phenyl)(6-methyl-4-(1H-pyrazol-5-yl)-5,6-dihydropyrido[3,4-d]pyrimidin-7(8H)-yl)methanone]: the IC50 in test [4] came to 5.6 nM; in test [3], 7.8 nM. For the same compound, the remaining activity at 10 µM in test [1] is 44.7%. The Ki in test [2] (setting [6]) is 25.1 nM.
